The record followed here is ChEMBL document CHEMBL1153077, “Highly tractable, sub-nanomolar non-steroidal glucocorticoid receptor agonists” (Bioorg Med Chem Lett, 2009).

Usually IC50 stands for the concentration at which inhibition is half-maximal. The low end stands for greater potency in that assay, the high end for weaker potency in that assay.

One assay deals with T1, Glucocorticoid receptor (Homo sapiens, UniProt P04150).
T1 sequence (P04150 whole entry): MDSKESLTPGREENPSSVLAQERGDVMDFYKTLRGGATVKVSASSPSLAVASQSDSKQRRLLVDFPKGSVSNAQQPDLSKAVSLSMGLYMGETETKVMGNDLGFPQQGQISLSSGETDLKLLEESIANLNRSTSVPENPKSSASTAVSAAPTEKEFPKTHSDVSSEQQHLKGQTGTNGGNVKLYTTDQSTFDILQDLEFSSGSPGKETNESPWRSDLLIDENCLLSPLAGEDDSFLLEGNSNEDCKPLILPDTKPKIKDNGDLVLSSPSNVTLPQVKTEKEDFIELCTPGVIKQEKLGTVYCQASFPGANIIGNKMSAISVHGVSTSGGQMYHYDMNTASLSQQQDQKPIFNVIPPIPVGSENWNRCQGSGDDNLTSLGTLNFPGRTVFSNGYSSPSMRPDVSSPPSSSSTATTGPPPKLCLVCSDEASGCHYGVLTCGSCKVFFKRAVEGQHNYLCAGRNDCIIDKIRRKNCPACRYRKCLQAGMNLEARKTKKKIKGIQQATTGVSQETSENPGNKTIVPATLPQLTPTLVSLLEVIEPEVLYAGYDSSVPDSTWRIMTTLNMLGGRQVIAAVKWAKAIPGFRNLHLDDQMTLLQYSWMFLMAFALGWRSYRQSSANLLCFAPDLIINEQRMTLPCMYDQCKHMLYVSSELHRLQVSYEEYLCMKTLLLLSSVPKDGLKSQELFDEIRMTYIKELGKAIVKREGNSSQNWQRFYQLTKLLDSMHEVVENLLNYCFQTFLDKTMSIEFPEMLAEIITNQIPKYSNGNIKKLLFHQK

A short description of assay [1]: Selectivity ratio of pIC50 for androgen receptor to pIC50 for human glucocorticoid receptor.
Assay [2] is described as follows: Selectivity ratio of pIC50 for progesterone receptor to pIC50 for human glucocorticoid receptor.
Assay [3] is described as follows: Selectivity ratio of pIC50 for estrogen receptor to pIC50 for human glucocorticoid receptor.

Each structure is given as a SMILES string.

Description for Glucocorticoid receptor: Agonist activity at GR in human A549 cells by NF-kappaB transrepression assay

As for `CCC1(CC(O)(CNC(=O)c2cnn(-c3ccccc3)c2N)C(F)(F)F)CCCc2ccccc21` (racemic), the 50% inhibitory concentration (IC50) against Glucocorticoid receptor was 1.58 nM.
In the case of `CCN(CC(O)(CNc1cccc2c1cnn2-c1ccc(F)cc1)C(F)(F)F)C(=O)c1c(C)cccc1C` (racemic), the Ratio pIC50 in assay [1], in assay [2] and in assay [3] was more than 50 throughout. On Glucocorticoid receptor, this compound gave a half-inhibitory concentration (IC50) of 0.501 nM.
As to `CCN(CC(O)(CNc1cccc2c1cnn2-c1ccc(F)cc1)C(F)(F)F)C(=O)c1ccccc1F` (racemic) [listing 1 of 2 here], half-maximal inhibition on Glucocorticoid receptor (IC50) was put at 0.2 nM.
For `CCN(CC(O)(CNc1cccc2c1cnn2-c1ccc(F)cc1)C(F)(F)F)C(=O)c1ccccc1C` (racemic), the Ratio pIC50 in assay [1], in assay [2] and in assay [3] was more than 50 in each case. Moreover, the midpoint of inhibition on Glucocorticoid receptor, the IC50, lay at 0.316 nM.
On to `CCN(CC(O)(CNc1cccc2c1cnn2-c1ccc(F)cc1)C(F)(F)F)C(=O)c1c(Cl)cccc1Cl` (racemic) [listing 1 of 2 here], for which the IC50 at Glucocorticoid receptor was 0.126 nM.
For the compound `CCN(CC(O)(CNc1cccc2c1cnn2-c1ccc(F)cc1)C(F)(F)F)C(=O)c1c(F)cccc1F` (racemic), the Ratio pIC50 in assay [1], in assay [2] and in assay [3] was more than 50 throughout. On Glucocorticoid receptor, the IC50 was 0.316 nM.
As for `CCCN(CC(O)(CNc1cccc2c1cnn2-c1ccccc1)C(F)(F)F)C(=O)c1ccccc1` (racemic), the Ratio pIC50 in assay [1], in assay [2] and in assay [3] was more than 50 throughout. On Glucocorticoid receptor, this compound had an IC50 of 3.16 nM.
In the case of `CCN(CC(O)(CNc1cccc2c1cnn2-c1ccccc1)C(F)(F)F)C(=O)c1ccccc1F` (racemic), the Ratio pIC50 in assay [1], in assay [2] and in assay [3] was more than 50 throughout. Also, the concentration for half-maximal inhibition (IC50) against Glucocorticoid receptor was 0.316 nM.
On to `CCN(CC(O)(CNc1cccc2c1cnn2-c1ccccc1)C(F)(F)F)S(=O)(=O)c1ccc(F)cc1` (racemic), for which the Ratio pIC50 in assay [1], in assay [2] and in assay [3] was more than 50 throughout. Besides, the IC50 against Glucocorticoid receptor was 7.94 nM.
As for `CCN(CC(O)(CNc1cccc2c1cnn2-c1ccccc1)C(F)(F)F)S(=O)(=O)c1ccccc1` (racemic), the Ratio pIC50 in assay [1], in assay [2] and in assay [3] was more than 50 throughout. On Glucocorticoid receptor, the IC50 is 2.51 nM.
For `CN(CC(O)(CNc1cccc2c1cnn2-c1ccccc1)C(F)(F)F)C(=O)c1ccccc1` (racemic), the Ratio pIC50 in assay [1], in assay [2] and in assay [3] was more than 50 in each case. The compound further had an IC50 against Glucocorticoid receptor of 5.01 nM.
As for `CCN(CC(O)(CNc1cc(C)cc2c1cnn2-c1ccccc1)C(F)(F)F)C(=O)c1ccccc1` (racemic), the Ratio pIC50 in assay [1], in assay [2] and in assay [3] was more than 50 each time. At Glucocorticoid receptor, this compound had an IC50 of 0.398 nM.
In the case of `CCN(CC(O)(CNc1cc(C)cc2c1cnn2-c1ccccc1)C(F)(F)F)C(=O)c1ccccc1F` (racemic), the Ratio pIC50 in assay [1], in assay [2] and in assay [3] was more than 50 in each case. On Glucocorticoid receptor, this compound gave an IC50 of 0.251 nM.
`CCN(CC(O)(CNc1cccc2c1cnn2-c1ccc(F)cc1)C(F)(F)F)C(=O)c1ccccc1` (racemic): the Ratio pIC50 in assay [1], in assay [2] and in assay [3] was more than 50 each time. Also, at Glucocorticoid receptor, the IC50 was 0.794 nM.
Consider `CCN(CC(O)(CNc1cc(C)cc2c1cnn2-c1ccc(F)cc1)C(F)(F)F)C(=O)c1ccccc1` (racemic), for which the Ratio pIC50 in assay [1], in assay [2] and in assay [3] was more than 50 in each case. In addition, the half-inhibitory concentration (IC50) against Glucocorticoid receptor was 0.398 nM.
In the case of `CCN(CC(O)(CNc1nc(C)nc2c1cnn2-c1ccccc1)C(F)(F)F)S(=O)(=O)c1ccc(F)cc1` (racemic), the Ratio pIC50 in assay [1], in assay [2] and in assay [3] was more than 50 each time. This compound had an IC50 at Glucocorticoid receptor of 25.1 nM.
For the compound `CCN(CC(O)(CNc1cccc2c1cnn2-c1ccccc1)C(F)(F)F)C(=O)c1ccccc1` (racemic), the Ratio pIC50 in assay [1], in assay [2] and in assay [3] was more than 50 throughout. Further, at Glucocorticoid receptor, 0.794 nM corresponded to half-maximal inhibition (IC50).
For `CCN(CC(O)(CNc1cccc2c1cnn2-c1ccc(F)cc1)C(F)(F)F)C(=O)c1ccccc1Cl` (racemic), the Ratio pIC50 in assay [1], in assay [2] and in assay [3] was more than 50 in each case. The IC50 on Glucocorticoid receptor was 0.251 nM.
Turning to `CCN(CC(O)(CNc1cc(C)cc2c1cnn2-c1ccc(F)cc1)C(F)(F)F)C(=O)c1ccccc1F` (racemic), the Ratio pIC50 in assay [1], in assay [2] and in assay [3] was more than 50 each time. Also, the half-maximal inhibitory concentration (IC50) against Glucocorticoid receptor was 0.2 nM.
Turning to `CCN(CC(O)(CNC(=O)c1cnn(-c2ccccc2)c1N)C(F)(F)F)S(=O)(=O)c1ccc(F)cc1` (racemic), the Ratio pIC50 in assay [1], in assay [2] and in assay [3] was more than 50 each time. This compound showed a half-inhibitory concentration (IC50) against Glucocorticoid receptor of 31.6 nM.
`CCN(CC(O)(CNc1cccc2c1cnn2-c1ccc(F)cc1)C(F)(F)F)C(=O)c1c(Cl)cccc1Cl` (racemic) [listing 2 of 2 here]: the Ratio pIC50 in assay [1], in assay [2] and in assay [3] was more than 50 throughout.
For `CCN(CC(O)(CNc1cccc2c1cnn2-c1ccc(F)cc1)C(F)(F)F)C(=O)c1ccccc1F` (racemic) [listing 2 of 2 here], the Ratio pIC50 in assay [1], in assay [2] and in assay [3] was more than 50 in each case.
At Glucocorticoid receptor, `CCN(CC(O)(CNc1cccc2c1cnn2-c1ccc(F)cc1)C(F)(F)F)C(=O)c1ccccc1F` (stereo in doubt; 32E1) [listing 1 of 2 here] gave a 50% inhibitory concentration (IC50) of 0.126 nM.
As to `CCN(CC(O)(CNc1cccc2c1cnn2-c1ccc(F)cc1)C(F)(F)F)C(=O)c1ccccc1F` (stereo in doubt; 32E1) [listing 2 of 2 here], the Ratio pIC50 in assay [1], in assay [2] and in assay [3] was more than 50 throughout.
For `CCN(CC(O)(CNc1cccc2c1cnn2-c1ccc(F)cc1)C(F)(F)F)C(=O)c1ccccc1F` (stereo in doubt; 32E2) [listing 1 of 2 here], inhibition at Glucocorticoid receptor was half-maximal at 31.6 nM (IC50).
Regarding `CCN(CC(O)(CNc1cccc2c1cnn2-c1ccc(F)cc1)C(F)(F)F)C(=O)c1ccccc1F` (stereo in doubt; 32E2) [listing 2 of 2 here], the Ratio pIC50 in assay [1], in assay [2] and in assay [3] was more than 50 in each case.
On Glucocorticoid receptor, `CCN(CC(O)(CNc1cccc2c1cnn2-c1ccc(F)cc1)C(F)(F)F)C(=O)c1c(Cl)cccc1Cl` (stereo in doubt; 38E1) [listing 1 of 2 here] had an IC50 of 0.0794 nM.
For the compound `CCN(CC(O)(CNc1cccc2c1cnn2-c1ccc(F)cc1)C(F)(F)F)C(=O)c1c(Cl)cccc1Cl` (stereo in doubt; 38E1) [listing 2 of 2 here], the Ratio pIC50 in assay [1], in assay [2] and in assay [3] was more than 50 throughout.
The compound `CCN(CC(O)(CNc1cccc2c1cnn2-c1ccc(F)cc1)C(F)(F)F)C(=O)c1c(Cl)cccc1Cl` (stereo in doubt; 38E2) [listing 1 of 2 here] showed a half-maximal inhibitory concentration (IC50) at Glucocorticoid receptor of 10 nM.
Consider `CCN(CC(O)(CNc1cccc2c1cnn2-c1ccc(F)cc1)C(F)(F)F)C(=O)c1c(Cl)cccc1Cl` (stereo in doubt; 38E2) [listing 2 of 2 here], for which the Ratio pIC50 in assay [1], in assay [2] and in assay [3] was more than 50 each time.
